Consider eleven molecules from US10030027B2, “Soluble guanylate cyclase stimulators” (MERCK SHARP & DOHME CORP., priority 2015, dated 2018).

Molecules are shown by their SMILES.

For orientation: Ki means the equilibrium dissociation constant of an inhibitor or competing ligand from its target.

For test [1], the target named is human recombinant sGC enzyme (Homo sapiens (Human), UniProt Q02108+Q02153). In words: Size Exclusion Chromatography (SEC) competition binding assay using [3H] Ex-77B as the radioligand. Conditions: [3H] Ex-77B radioligand, 24 hours at 37° C. The procedure, abridged:
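Recombinant human sGC binding measured by competition against tritiated Ex-77B radioligand, with non-specific binding defined by 1 μM unlabeled Ex-77B.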
On the technique in general: In gel filtration, larger molecules generally elute earlier.

Test [2] relates to hypoxia-induced pulmonary hypertension rat. As to the kind of experiment: Acute efficacy in hypoxia-induced pulmonary hypertension in rat following intratracheal administration. Type of test: in vivo. An excerpt: Acute Efficacy in Hypoxia-Induced Pulmonary Hypertension in Rat Following Intratracheal Administration Charles River Sprague-Dawley (CD) male rats weighing approximately 350 g were implanted with HD-S21 dual pressure telemetry transmitters (Data Sciences International (DSI)) into the pulmonary artery and femoral artery. This transmitter enables simultaneous measurement of both pulmonary and systemic hemodynamic parameters in the same animal. After a 7-10 day post-operative recovery period, animals were subjected to a normobaric hypoxic (10% oxygen) environment using a Higher Peak Mountain Air Generator (MAG-10) connected to a modified rodent cage via a fitted inlet port. Oxygen (at 10%), temperature, humidity, and CO2 were controlled within normal range and animals were maintained on a 12 hour light-dark cycle with ad libitum access to food and water. After two weeks exposure to 10% O2 hypoxic environment, systolic pulmonary arterial pressure readings increased from 25 mmHg to greater than 50 mmHg. Using a 48 hour baseline average, animals with readings between 50-110 mmHg (standard deviation of less than 10 mmHg) and minimal changes in systolic systemic blood pressure were enrolled for study. Animals were utilized for up to 2 studies per week for 4 weeks with a minimum of 2 days washout between doses of test agent. Compound or vehicle was administered intra-tracheally under light isoflurane anesthesia (5% in oxygen; flow rate 2.0 L/min for 3 minutes). Once anesthetized, rats were placed on an angled intubation stand in supine position and the trachea visualized using a small laryngoscope. Animals then received either 0.5 mL/kg of vehicle or 0.5 mL/kg vehicle containing compound intra-tracheally delivered via microsprayer by use of a Penn-Century Microsprayer® needle 3″ (Model IA-1B-GP) attached to a 1 mL high pressure syringe (Penn Century-Model B-SYR-PL1000) (Penn-Century, Philadelphia, Pa.). The Microsprayer® tip was inserted into the trachea up to the point at which the bend in the needle is close to the tip of the snout, which positions the tip of the Microsprayer® in front of the carina (bifurcation of trachea at the bronchi). After dose delivery the animal is placed on its back in the home cage for recovery. Hemodynamic measurements were continuously recorded and readings consolidated to hourly moving averages. Each animal received a vehicle on Day 1 followed by vehicle or test agent on Day 2. Change from vehicle baseline was calculated by subtracting the hourly Day 1 vehicle response from the hourly Day 2 response and treatment group data was expressed as mean±SEM. Decreases of systolic blood pressure (SBP) and systolic pulmonary arterial pressure (PAP) were measured at a particular IT dose (mpk milligrams per kilogram) for the following Example compounds.

Another test addresses sGC α1/β1 heterodimer (Homo sapiens (Human), UniProt Q02108+Q02153). In words: Cell-based sGC functional assay (cyclic GMP assay for sGC activator: CASA assay). The following applies: CHO-K1/sGC cells; for Emax: CHO-K1, activity expressed as percentage of compound A (standard), read-out: % Activation; for EC50: inflection point, 4P fit, read-out: IP. In short, it runs like this: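 CHO-K1 cells stably expressing sGC α1/β1 were pre-incubated with or without 1 μM DETA-NO (30 min, 25 °C), then exposed to compounds for 1 hr at 37 °C with 0.5 mM IBMX. Intracellular cGMP was read by HTRF and expressed as a percentage of a reference heme-dependent activator's maximum.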

The subject of test [3] is Spontaneously hypertensive rats (SHR). As to the kind of experiment: Acute efficacy in spontaneously hypertensive rats (SHR). In kind it is in vivo, rat. An excerpt:
Acute Efficacy in Spontaneously Hypertensive Rats (SHR)
Spontaneously hypertensive rats (SHR, male, Charles River) were implanted with DSI TA11PA-C40 telemetry device (Data Sciences, Inc., St. Paul, Minn.) under isoflurane or ketamine/metomidine anesthesia. The telemetry unit catheter was inserted into the descending aorta via the femoral artery and the telemetry device was implanted subcutaneously in the left flank area. Animals were allowed to recover from surgery for 14 days before the start of any studies. Blood pressure, heart rate, and activity signals from conscious, freely moving rats were recorded continuously for 30 seconds every 10 minutes. On the day prior to administration of compound, a single oral dose of vehicle (10% transcutol/20% Cremophor/70% water) was administered to all animals to establish baseline control data. The blood pressure lowering efficacy of compound (PO) or vehicle was evaluated following a single oral gavage. Data were collected as hourly averages, and changes in blood pressure were calculated by subtracting control baseline data on an hourly basis. Animals were maintained on normal diet with a 12 hour light-dark cycle.
Maximum peak decreases of systolic blood pressure (SBP) in SHR at a particular P.O. dose (mpk milligrams per kilogram) for the following Example compounds are provided.

Regarding `CC(C)(Cc1coc(C2(C)C(=O)Nc3nc(-c4nn(Cc5ccccc5F)c5cc(Cl)ccc45)nc(N)c32)n1)C(=O)O` (centres unmarked) [Example 3A, 3-(2-{4-amino-2-[6-chloro-1-(2-fluorobenzyl)-1H-indazol-3-yl]-5-methyl-6-oxo-6,7-dihydro-5H-pyrrolo[2,3-d]pyrimidin-5-yl)oxazol-4-yl}-2,2-dimethyl-propanoic acid], the Ki in test [1] was 0.067 nM. Also, in test [2] (Dose IT 0.01 mpk), the “Category: decrease in SBP (at minimum decrease in PAP of ≥15 mmHg)” value (“Category: decrease in SBP” below) is given as “A (decrease in SBP 0-5 mmHg)”. In addition, at sGC α1/β1 heterodimer, the Emax was 126% and the EC50 was 183 nM.

With `CC(C)(Cc1cccc(C2(C)C(=O)Nc3nc(-c4nn(CCC(F)(F)C(F)(F)F)c5ncccc45)nc(N)c32)c1)C(=O)O` (centres unmarked) [Example 11B, 3-(3-{4-Amino-5-methyl-6-oxo-2-[1-(3,3,4,4,4-pentafluorobutyl)-1H-pyrazolo[3,4-b]pyridin-3-yl]-6,7-dihydro-5H-pyrrolo[2,3-d]pyrimidin-5-yl}phenyl)-2,2-dimethylpropanoic acid], the Ki in test [1] is 0.304 nM. Besides, the “Category: decrease in SBP” value in test [2] (Dose IT 0.03 mpk) is “B (decrease in SBP 5-10 mmHg)”. Also, at sGC α1/β1 heterodimer, the Emax was found to be 99% and the EC50 was found to be 537 nM.

Take `CC1(c2nc(CC(=O)O)co2)C(=O)Nc2nc(-c3nn(Cc4ccccc4F)c4cc(Cl)ccc34)nc(N)c21` (centres unmarked) [Example 51B, 2-(2-{4-amino-2-(6-chloro-1-(2-fluorobenzyl)-1H-indazol-3-yl)-5-methyl-6-oxo-6,7-dihydro-5H-pyrrolo[2,3-d]pyrimidin-5-yl}oxazol-4-yl)acetic acid]: the “Category: decrease in SBP” value in test [2] (Dose IT 0.01 mpk) is “A (decrease in SBP 0-5 mmHg)”. Moreover, at sGC α1/β1 heterodimer, the Emax was 116% and the EC50 amounted to 485 nM.

In the case of `CC(C)(Cc1coc(C2(C)C(=O)Nc3nc(-c4nn(Cc5ccccc5F)c5cc(F)ccc45)nc(N)c32)n1)C(=O)O` (centres unmarked) [Example 63A, 3-(2-{4-amino-2-[6-fluoro-1-(2-fluorobenzyl)-1H-indazol-3-yl]-5-methyl-6-oxo-6,7-dihydro-5H-pyrrolo[2,3-d]pyrimidin-5-yl}oxazol-4-yl)-2,2-dimethylpropanoic acid], the “Category: decrease in SBP” value in test [2] (Dose IT 0.01 mpk) is on record as “A (decrease in SBP 0-5 mmHg)”. Besides, on sGC α1/β1 heterodimer, the Emax worked out at 72% and the EC50 came to 104 nM.

As to `CC(C)(CC(=O)O)c1csc([C@]2(C)C(=O)Nc3nc(-c4nn(CCC(F)(F)C(F)(F)F)c5ncccc45)nc(N)c32)n1` [Example 79B, (S)-3-(2-{4-amino-5-methyl-6-oxo-2-[1-(3,3,4,4,4-pentafluorobutyl)-1H-pyrazolo[3,4-b]pyridin-3-yl]-6,7-dihydro-5H-pyrrolo[2,3-d]pyrimidin-5-yl}-1,3-thiazol-4-yl)-3-methylbutanoic acid], in test [3] (Dose P.O. 3 mpk), the “Category: maximum peak decrease of systolic blood pressure (SBP) in SHR” value (“Category: maximum peak decrease” for short) is listed as “A (decrease in SBP in SHRs 5-25 mmHg)”. In addition, in test [1], the inhibitory constant (Ki) stood at 0.42 nM. Also, at sGC α1/β1 heterodimer, the Emax turned out to be 124% and the EC50 is 843 nM.

As for `C[C@@]1(c2nc(C3CC3C(=O)O)cs2)C(=O)Nc2nc(-c3nn(CCC(F)(F)C(F)(F)F)c4ncccc34)nc(N)c21` (stereo partly drawn) [Example 80BA, (5S)-2-(2-{-4-amino-5-methyl-6-oxo-2-[1-(3,3,4,4,4-pentafluorobutyl)-1H-pyrazolo[3,4-b]pyridin-3-yl]-6,7-dihydro-5H-pyrrolo[2,3-d]pyrimidin-5-yl}-1,3-thiazol-4-yl)cyclopropane-carboxylic acid], the “Category: decrease in SBP” value in test [2] (Dose IT 0.1 mpk) is reported as “B (decrease in SBP 5-10 mmHg)”.

For `C[C@@]1(c2nc(CC3(C(=O)O)CC3)cs2)C(=O)Nc2nc(-c3nn(CCC(F)(F)C(F)(F)F)c4ncccc34)nc(N)c21` [Example 81B, (S)-1-[(2-{4-amino-5-methyl-6-oxo-2-[1-(3,3,4,4,4-pentafluorobutyl)-1H-pyrazolo[3,4-b]pyridin-3-yl]-6,7-dihydro-5H-pyrrolo[2,3-d]pyrimidin-5-yl}-1,3-thiazol-4-yl)methyl]cyclopropane carboxylic acid], the “Category: decrease in SBP” value in test [2] (Dose IT 0.03 mpk) is recorded as “B (decrease in SBP 5-10 mmHg)”. Moreover, on sGC α1/β1 heterodimer, the Emax worked out at 110% and the EC50 was 504 nM.

Turning to `CCCCn1nc(-c2nc(N)c3c(n2)NC(=O)C3(C)c2nc(CC(C)(C)C(=O)O)cs2)c2cccnc21` (centres unmarked) [Example 86A, 3-{2-[4-amino-2-(1-butyl-1H-pyrazolo[3,4-b]pyridin-3-yl)-5-methyl-6-oxo-6,7-dihydro-5H-pyrrolo[2,3-d]pyrimidin-5-yl]-1,3-thiazol-4-yl}-2,2-dimethylpropanoic acid], the “Category: maximum peak decrease” value in test [3] (Dose P.O. 1 mpk) is “A (decrease in SBP in SHRs 5-25 mmHg)”. For the same molecule, in test [1], the Ki was 0.323 nM. Also, on sGC α1/β1 heterodimer, the Emax worked out at 102% and the EC50 amounted to 247 nM.

Take `CC(C)(Cc1csc([C@]2(C)C(=O)Nc3nc(-c4nn(CCCC(F)(F)F)c5nc(Cl)ccc45)nc(N)c32)n1)C(=O)O` [Example 89B, (S)-3-(2-{4-amino-2-[6-chloro-1-(4,4,4-trifluorobutyl)-1H-pyrazolo[3,4-b]pyridin-3-yl]-5-methyl-6-oxo-6,7-dihydro-5H-pyrrolo[2,3-d]pyrimidin-5-yl}-1,3-thiazol-4-yl)-2,2-dimethylpropanoic acid]: in test [3] (Dose P.O. 3 mpk), the “Category: maximum peak decrease” value is given as “B (decrease in SBP in SHRs 25-40 mmHg)”. Also, the Ki in test [1] was determined as 0.343 nM. In addition, at sGC α1/β1 heterodimer, the Emax is 108% and the EC50 worked out at 442 nM.

In the case of `CC(C)(Cc1csc([C@]2(C)C(=O)Nc3nc(-c4nn(Cc5ccccc5F)c5ncccc45)nc(N)c32)n1)C(=O)O` [Example 90B, (S)-3-(2-{4-amino-2-[1-(2-fluorobenzyl)-1H-pyrazolo[3,4-b]pyridin-3-yl]-5-methyl-6-oxo-6,7-dihydro-5H-pyrrolo[2,3-d]pyrimidin-5-yl}-1,3-thiazol-4-yl)-2,2-dimethylpropanoic acid], the “Category: maximum peak decrease” value in test [3] (Dose P.O. 1 mpk) is “B (decrease in SBP in SHRs 25-40 mmHg)”. Moreover, the Ki in test [1] was 0.063 nM. For the same molecule, on sGC α1/β1 heterodimer, the Emax turned out to be 112% and the EC50 amounted to 129 nM.

For the molecule `Cc1cc(C2(C)C(=O)Nc3nc(-c4nn(CCC(F)(F)C(F)(F)F)c5cc(Cl)ccc45)nc(N)c32)ccc1CCC(=O)O` (centres unmarked) [Example 121B, 3-(4-{4-Amino-2-[6-chloro-1-(3,3,4,4,4-pentafluorobutyl)-1H-indazol-3-yl]-5-methyl-6-oxo-6,7-dihydro-5H-pyrrolo[2,3-d]pyrimidin-5-yl}-2-methylphenyl)propanoic acid], the “Category: maximum peak decrease” value in test [3] (Dose P.O. 3 mpk) was “A (decrease in SBP in SHRs 5-25 mmHg)”. For the same molecule, in test [1], the Ki stood at 0.234 nM. Moreover, on sGC α1/β1 heterodimer, the Emax came to 118% and the EC50 was found to be 238 nM.
